7 compounds from publication PMC12364115, “High-throughput virtual screening, identification and in vitro biological evaluation of novel inhibitors of PLK1 and NRP1” (Journal of Enzyme Inhibition and Medicinal Chemistry, 2025) can be followed below.

In one assay the target is T1, NRP1 (Homo sapiens, UniProt O14786).
T1 construct: expressed in transfected cells; host or cells: HUVEC
As to the kind of experiment: NRP1 inhibition assay (125I-VEGF-A165 binding, HUVEC cells transfected with NRP1). The procedure:
The method was as previously described. Briefly, HUVEC cells transfected with NRP1 were added to a 96-well plate and after growing to confluence, and the compounds were added to each well at different concentrations. Then, the ^125I-VEGF-A165 (0.1 nM) was added to measure non-specific binding. Data curves were plotted and half maximal inhibitory concentrations (IC50) were derived for the selected compounds using Prism 6.0 software.

A further assay concerns the target T2, PLK1 (Homo sapiens, UniProt P53350).
T2 construct: purchased Abcam (Cambridge, MA, USA)
The assay is described as follows: PLK1 inhibition assay. It counts as biochemical. The procedure: The method was as previously described. Briefly, the enzyme reaction mixture containing different doses of compounds was incubated for 90 min at room temperature. Then the mixture was transferred to a Neutravidin-coated 384-well plate and incubated for 60 min at room temperature. Then the wells were incubated with 50 μL of the antibody mixture for 1 h. The bound europium was liberated using 50 μL of Enhancement Solution.

In another assay the target is T3, PLK3 (Homo sapiens, UniProt Q9H4B4).
T3 construct: ICE Bioscience Inc (Beijing, China) (performed the assay)
The assay is described as follows: In vitro selectivity assay PLK3. Particulars: n = 3. It counts as biochemical. The procedure: (§1) To assess the selectivity of PLN-5, we systematically determined its inhibitory activity against PLK2, PLK3, PLK4 (homologues of PLK1) and […]. This assay was performed by ICE Bioscience Inc (Beijing, China).

A further assay deals with T4, NRP2 (Homo sapiens, UniProt O60462).
T4 construct: ICE Bioscience Inc (Beijing, China) (performed the assay)
T4 sequence (O60462 21-931): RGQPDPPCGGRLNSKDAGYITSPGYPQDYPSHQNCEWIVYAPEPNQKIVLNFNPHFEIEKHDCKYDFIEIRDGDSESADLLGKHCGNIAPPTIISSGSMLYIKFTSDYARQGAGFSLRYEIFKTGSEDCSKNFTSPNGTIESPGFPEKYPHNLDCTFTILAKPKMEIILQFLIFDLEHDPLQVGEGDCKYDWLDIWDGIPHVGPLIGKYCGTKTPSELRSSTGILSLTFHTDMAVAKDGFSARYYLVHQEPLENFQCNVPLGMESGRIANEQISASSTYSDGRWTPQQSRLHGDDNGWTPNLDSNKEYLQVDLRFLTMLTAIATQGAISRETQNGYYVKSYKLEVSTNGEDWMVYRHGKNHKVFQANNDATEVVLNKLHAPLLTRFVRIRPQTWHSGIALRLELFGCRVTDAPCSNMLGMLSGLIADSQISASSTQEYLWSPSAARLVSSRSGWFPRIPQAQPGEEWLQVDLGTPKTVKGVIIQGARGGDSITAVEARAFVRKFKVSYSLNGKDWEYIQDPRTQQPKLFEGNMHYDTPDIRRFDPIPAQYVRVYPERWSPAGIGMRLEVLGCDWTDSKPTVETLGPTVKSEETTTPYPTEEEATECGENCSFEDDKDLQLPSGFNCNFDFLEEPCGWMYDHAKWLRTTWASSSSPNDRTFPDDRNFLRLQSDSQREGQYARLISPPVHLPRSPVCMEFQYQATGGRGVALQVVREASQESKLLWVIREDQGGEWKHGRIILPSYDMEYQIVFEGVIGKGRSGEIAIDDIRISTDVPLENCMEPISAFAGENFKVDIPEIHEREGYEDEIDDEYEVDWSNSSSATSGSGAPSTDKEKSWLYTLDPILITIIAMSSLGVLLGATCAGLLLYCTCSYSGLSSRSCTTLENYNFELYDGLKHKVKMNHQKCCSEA
As to the kind of experiment: In vitro selectivity assay NRP2. The conditions noted are these: n = 3. It counts as biochemical. Here is the method: as §1

In a further assay the test system is A549 cells. As to the kind of experiment: MTT assay A549. It counts as cell-based. The conditions noted are these: Homo sapiens, 72 h treatment, mean ± SD, n = 3. The procedure:
(§2) The lung cancer cells NCI-H460 (large cell lung carcinoma), A549 (adenocarcinoma), A427 (adenocarcinoma) and normal lung cells BEAS-2B (human normal lung epithelial cells) were purchased from The American Type Culture Collection (ATCC) (Manassas, VA, USA). The cells were cultured with Roswell Park Memorial Institute (RPMI) ‐1640 medium. The temperature of the cell culture was maintained at 37 °C. Hit compounds were obtained commercially from WuXi AppTec (PLN-1, Lot NO: P112561-P1; PLN-2, Lot NO: P112561-P2; PLN-3, Lot NO: P112561-P3; PLN-4, Lot NO: P112561-P4; PLN-5, Lot NO: P112561-P5) (Table S1). The purity of PLN 1-5 was more than 98% as determined by HPLC (Supplementary material). Human PLK1 and NRP1 proteins were purchased from Abcam (Cambridge, MA, USA).
(§3) Cells were seeded in 96-well plates (5 × 10^4 cells/well) and incubated overnight. Cells were incubated with different concentrations of PLN-5 at 37 °C for 72 h. After removal of the medium, MTT stock solution (5 mg/ml) was added and the incubation continued for 4 h. After centrifugation, the insoluble crystals were dissolved in dimethyl sulfoxide and gently shaken for 15 min. Finally, absorbance was measured at 570 nm using a microplate reader. The IC50 were calculated using Prism 6.0 software.
For orientation: Formazan colour is commonly taken as a measure of viable cells.

The subject of the next assay is BEAS-2B cells. The assay is described as follows: MTT assay BEAS-2B. Format: cell-based, human. The conditions noted are these: normal lung cells, 72 h treatment, n = 3. Here is the method:
as §2, §3

The target of a further assay is T5, PLK4 (Homo sapiens, UniProt O00444).
T5 construct: ICE Bioscience Inc (Beijing, China) (performed the assay)
T5 sequence (O00444 1-970): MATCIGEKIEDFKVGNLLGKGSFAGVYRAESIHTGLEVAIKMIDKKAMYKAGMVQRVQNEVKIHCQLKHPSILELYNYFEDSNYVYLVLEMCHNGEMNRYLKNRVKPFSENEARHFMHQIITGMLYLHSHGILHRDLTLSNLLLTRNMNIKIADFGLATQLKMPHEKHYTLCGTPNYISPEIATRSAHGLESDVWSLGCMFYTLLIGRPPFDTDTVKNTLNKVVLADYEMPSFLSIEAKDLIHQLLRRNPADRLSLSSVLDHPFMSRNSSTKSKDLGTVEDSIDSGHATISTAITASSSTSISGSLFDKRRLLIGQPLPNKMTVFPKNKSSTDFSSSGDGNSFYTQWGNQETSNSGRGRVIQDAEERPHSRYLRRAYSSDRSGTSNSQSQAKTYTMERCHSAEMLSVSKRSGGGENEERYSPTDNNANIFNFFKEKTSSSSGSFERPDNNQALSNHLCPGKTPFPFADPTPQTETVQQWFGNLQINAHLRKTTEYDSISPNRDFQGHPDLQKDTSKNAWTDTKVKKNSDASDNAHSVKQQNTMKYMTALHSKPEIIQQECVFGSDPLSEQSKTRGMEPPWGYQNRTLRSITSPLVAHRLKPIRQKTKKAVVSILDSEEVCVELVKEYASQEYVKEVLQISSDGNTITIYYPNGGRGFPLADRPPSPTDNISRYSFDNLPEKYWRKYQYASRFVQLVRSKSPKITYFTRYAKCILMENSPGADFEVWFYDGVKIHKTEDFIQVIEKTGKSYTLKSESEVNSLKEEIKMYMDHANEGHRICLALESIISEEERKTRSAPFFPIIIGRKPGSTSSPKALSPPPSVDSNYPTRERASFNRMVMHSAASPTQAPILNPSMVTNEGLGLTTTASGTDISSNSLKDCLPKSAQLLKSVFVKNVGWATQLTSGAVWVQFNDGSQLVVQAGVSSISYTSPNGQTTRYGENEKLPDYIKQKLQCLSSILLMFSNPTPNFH
As to the kind of experiment: In vitro selectivity assay PLK4. Format: biochemical. Here is the method: as §1

A further assay deals with A427 cells. As to the kind of experiment: MTT assay A427. It counts as cell-based. The conditions noted are these: Homo sapiens, A-427, 72 h treatment, mean ± SD, n = 3. Here is the method: as §2, §3
For another assay, the system named is NCI-H460 cells. As to the kind of experiment: MTT assay NCI-H460. It counts as cell-based, human. The procedure: as §2, §3
In a further assay the target is T6, PLK2 (Homo sapiens, UniProt Q9NYY3).
T6 construct: ICE Bioscience Inc (Beijing, China) (performed the assay)
The assay is described as follows: In vitro selectivity assay PLK2. It counts as biochemical. Here is the method:
as §1

SMILES strings stand for the structures.

T2 sequence (P53350 whole entry): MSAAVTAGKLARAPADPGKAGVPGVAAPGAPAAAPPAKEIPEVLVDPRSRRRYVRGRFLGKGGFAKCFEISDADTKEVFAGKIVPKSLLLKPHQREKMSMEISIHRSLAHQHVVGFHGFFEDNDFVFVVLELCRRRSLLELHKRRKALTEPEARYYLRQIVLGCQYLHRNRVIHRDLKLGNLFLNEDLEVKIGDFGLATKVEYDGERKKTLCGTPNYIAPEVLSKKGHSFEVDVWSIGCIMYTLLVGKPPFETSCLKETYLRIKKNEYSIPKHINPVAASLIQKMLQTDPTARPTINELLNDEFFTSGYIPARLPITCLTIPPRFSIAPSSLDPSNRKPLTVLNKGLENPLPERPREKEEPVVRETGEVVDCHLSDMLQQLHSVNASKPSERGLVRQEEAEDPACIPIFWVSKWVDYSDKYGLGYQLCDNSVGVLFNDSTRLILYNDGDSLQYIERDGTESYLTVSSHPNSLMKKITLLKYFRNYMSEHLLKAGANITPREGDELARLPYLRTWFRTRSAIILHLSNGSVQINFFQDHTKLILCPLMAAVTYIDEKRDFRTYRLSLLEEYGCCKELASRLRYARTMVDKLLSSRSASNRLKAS
T1 sequence (O14786 22-923): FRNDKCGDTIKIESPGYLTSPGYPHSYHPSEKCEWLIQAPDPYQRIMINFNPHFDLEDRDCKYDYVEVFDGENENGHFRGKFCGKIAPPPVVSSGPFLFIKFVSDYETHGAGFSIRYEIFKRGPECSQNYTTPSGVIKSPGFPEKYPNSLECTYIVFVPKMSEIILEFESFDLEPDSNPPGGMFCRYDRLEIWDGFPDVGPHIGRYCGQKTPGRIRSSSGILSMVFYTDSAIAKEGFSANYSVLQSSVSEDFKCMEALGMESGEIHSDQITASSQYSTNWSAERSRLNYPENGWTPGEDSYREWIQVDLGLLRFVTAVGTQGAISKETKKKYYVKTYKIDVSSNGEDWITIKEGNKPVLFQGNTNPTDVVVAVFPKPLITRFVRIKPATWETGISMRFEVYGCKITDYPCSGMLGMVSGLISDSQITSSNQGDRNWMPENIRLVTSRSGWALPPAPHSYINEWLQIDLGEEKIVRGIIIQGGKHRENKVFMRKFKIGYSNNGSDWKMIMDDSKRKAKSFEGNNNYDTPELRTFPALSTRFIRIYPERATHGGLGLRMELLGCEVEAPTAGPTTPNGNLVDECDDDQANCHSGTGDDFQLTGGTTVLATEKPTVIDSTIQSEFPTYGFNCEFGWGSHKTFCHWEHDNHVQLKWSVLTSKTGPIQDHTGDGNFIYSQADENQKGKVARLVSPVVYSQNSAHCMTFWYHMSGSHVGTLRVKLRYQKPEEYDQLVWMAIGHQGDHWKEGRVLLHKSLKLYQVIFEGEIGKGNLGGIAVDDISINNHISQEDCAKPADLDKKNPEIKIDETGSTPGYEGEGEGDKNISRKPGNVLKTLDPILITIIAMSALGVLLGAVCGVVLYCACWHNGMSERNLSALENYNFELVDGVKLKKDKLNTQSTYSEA
T3 sequence (Q9H4B4 whole entry, species assumed): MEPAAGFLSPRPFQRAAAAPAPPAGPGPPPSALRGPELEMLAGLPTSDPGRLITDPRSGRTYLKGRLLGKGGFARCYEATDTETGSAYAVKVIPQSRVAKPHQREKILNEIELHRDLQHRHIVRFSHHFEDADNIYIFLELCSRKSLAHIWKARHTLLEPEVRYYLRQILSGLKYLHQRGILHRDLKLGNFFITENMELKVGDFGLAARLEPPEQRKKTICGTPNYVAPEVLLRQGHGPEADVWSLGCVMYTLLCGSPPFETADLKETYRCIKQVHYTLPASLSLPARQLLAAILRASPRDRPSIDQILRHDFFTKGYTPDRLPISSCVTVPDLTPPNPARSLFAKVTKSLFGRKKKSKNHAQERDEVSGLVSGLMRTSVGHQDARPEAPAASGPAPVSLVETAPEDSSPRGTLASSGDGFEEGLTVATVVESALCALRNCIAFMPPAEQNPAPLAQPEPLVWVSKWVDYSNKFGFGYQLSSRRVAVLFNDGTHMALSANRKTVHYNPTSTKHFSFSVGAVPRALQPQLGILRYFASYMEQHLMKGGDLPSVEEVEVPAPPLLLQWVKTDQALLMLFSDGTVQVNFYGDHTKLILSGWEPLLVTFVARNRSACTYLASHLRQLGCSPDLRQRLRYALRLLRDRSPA
T6 sequence (Q9NYY3 whole entry, species assumed): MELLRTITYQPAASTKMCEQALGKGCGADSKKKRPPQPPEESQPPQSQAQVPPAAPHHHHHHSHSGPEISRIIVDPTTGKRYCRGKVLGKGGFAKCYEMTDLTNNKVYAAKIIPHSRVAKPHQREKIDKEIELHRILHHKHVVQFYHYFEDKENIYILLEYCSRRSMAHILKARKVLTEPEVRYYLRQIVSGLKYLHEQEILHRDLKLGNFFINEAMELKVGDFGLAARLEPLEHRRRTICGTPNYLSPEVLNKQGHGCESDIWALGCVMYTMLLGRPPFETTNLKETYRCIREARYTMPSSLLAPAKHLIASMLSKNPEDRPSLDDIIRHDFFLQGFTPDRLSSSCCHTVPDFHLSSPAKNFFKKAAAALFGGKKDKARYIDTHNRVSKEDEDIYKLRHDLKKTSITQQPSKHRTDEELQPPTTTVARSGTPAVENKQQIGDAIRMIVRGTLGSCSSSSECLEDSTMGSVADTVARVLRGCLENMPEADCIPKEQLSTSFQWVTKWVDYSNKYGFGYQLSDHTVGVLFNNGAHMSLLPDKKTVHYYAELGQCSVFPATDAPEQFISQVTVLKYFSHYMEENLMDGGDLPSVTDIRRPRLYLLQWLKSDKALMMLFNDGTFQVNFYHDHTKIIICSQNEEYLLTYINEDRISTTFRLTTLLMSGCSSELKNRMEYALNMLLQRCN

A word on the IC50: it is the concentration at which inhibition is half-maximal. In turn, `NC(N)=NCCC[C@H](NC(=O)c1sccc1NS(=O)(=O)c1cccc2nsnc12)C(=O)O` [EG00229, reference compound] displayed an IC50 at NRP1 (mean ± SD, n = 3) of 0.64 ± 0.0208 µM. In addition, the “PLK1 (IC50, nM)” value on PLK1 (mean ± SD, n = 3) is on record as “no inhibition”.

On to `CN1CCN(c2ccc(OC(F)(F)F)c(Nc3ncc4c(n3)-c3c(c(C(N)=O)nn3CCO)CC4)c2)CC1` [Onvansertib, onvansertib, reference compound], for which the “NRP1 (IC50, nM)” value at NRP1 (mean ± SD, n = 3) is “no inhibition”.

As to `Cc1ncc(CCCN(C)CC(=O)N[C@@H](CCCN=C(N)N)C(=O)O)cc1Nc1ncc2c(n1)-c1ccc(C#N)cc1NC(=O)C2` [PLN-1], the IC50 on NRP1 (mean ± SD, n = 3) was 0.0127 ± 0.00081 µM; against PLK1 (mean ± SD, n = 3), 0.00812 ± 0.00034 µM.

As to `NC(N)=NCCC[C@H](NC(=O)CCCCCc1cncc(Nc2ncc3c(n2)-c2ccc(Cl)cc2NC(=O)C3)c1)C(=O)O` [PLN-2], the IC50 is 0.0243 ± 0.00129 µM on NRP1 (mean ± SD, n = 3) and 0.0165 ± 0.00286 µM at PLK1 (mean ± SD, n = 3).

With `COc1ncc(Nc2ncc3c(n2)-c2ccc(Cl)cc2NC(=O)C3)cc1CCCCCC(=O)N[C@@H](CCCN=C(N)N)C(=O)O` [PLN-3], the IC50 at NRP1 (mean ± SD, n = 3) worked out at 0.0305 ± 0.00255 µM; against PLK1 (mean ± SD, n = 3), 0.0114 ± 0.00074 µM.

On to `CCc1ccc2c(c1)NC(=O)Cc1cnc(Nc3cc(CCCN(C)CC(=O)N[C@@H](CCCN=C(N)N)C(=O)O)cnc3C)nc1-2` [PLN-4], for which the IC50 on NRP1 (mean ± SD, n = 3) worked out at 0.00783 ± 0.00042 µM; against PLK1 (mean ± SD, n = 3) it was 0.00451 ± 0.00026 µM.

In the case of `Cc1ncc(CCCN(C)CC(=O)N[C@@H](CCCN=C(N)N)C(=O)O)cc1Nc1ncc2c(n1)-c1ccc(Cl)cc1NC(=S)C2` [PLN-5], the IC50 is > 10 µM at PLK3; > 10 µM against NRP2; 0.41 ± 0.03 µM in the assay on A549 cells; > 10 µM with BEAS-2B cells (Homo sapiens, BEAS-2B); > 10 µM against PLK4; 0.33 ± 0.02 µM in the assay on A427 cells. Also, the IC50 at NRP1 (mean ± SD, n = 3) was 0.00515 ± 0.00024 µM; at PLK1 (mean ± SD, n = 3), 0.00207 ± 0.00013 µM; in the assay with NCI-H460 cells (Homo sapiens, NCI-H460, 72 h treatment, MTT, mean ± SD, n = 3), 0.27 ± 0.02 µM; against PLK2, > 10 µM. Moreover, the “IC50 (μM) BEAS-2B” value with BEAS-2B cells was “no significant inhibitory effect”. Further, on NRP1 (ratio of IC50 values vs positive control EG00229), the “NRP1 potency relative to EG00229” value was ~124 fold. Besides, the “PLK1 potency relative to onvansertib” value on PLK1 (ratio of IC50 values vs positive control onvansertib) is on record as “approximately 9 fold”. Also, the “cell survival rate of NCI-H460 cells” value with NCI-H460 cells (2 μM compound) was “lowest survival rate”. The “inhibition rate against NCI-H460 cells” value in the assay on NCI-H460 cells (MTT assay) is listed as “more than 90%”.
